“And” between values parts separate entries of the source, which are not always exact repeats. Equal entries are not always repeated. Where two headings read alike, the source gives them in different places.
How the values were obtained:
AbaR [1] = biological target: T1, AbaR (Acinetobacter nosocomialis, UniProt A0A0N8YGA2); assay: AbaR agonism reporter gene; assay type: cell-based, Acinetobacter baumannii; settings: for Activation [%]: AHLs at 100 µM, normalized to (R)-OH-dDHL at 100 µM (set to 100%), error ≤ ±10%; for EC50: EC50, AHLs over 200 pM – 200 µM; for AbaR agonism (in words): 100 µM
AbaR [2] = biological target: T1, AbaR; settings: identical A. baumannii reporter strain; ref 43 (Garner et al.); cited from earlier work
LasR = settings: cited from earlier work
A. baumannii (ΔabaI) [3] = assay: A. baumannii biofilm assay; assay type: cell-based, Acinetobacter baumannii; settings: AHL at 100 µM, crystal violet, 24 h; for inhibition of biofilm formation (in words): biofilm recovery with (R)-OH-dDHL; for reduction of biofilm recovery: (R)-OH-dDHL added
A. baumannii (ΔabaI) [4] = assay: A. baumannii motility assay on soft agar; assay type: cell-based, Acinetobacter baumannii; settings: for concentration preventing migration (comparable to ΔabaI mutant): (R)-OH-dDHL supplemented 0.3% soft agar; for IC50: Acinetobacter baumannii, read-out: IC50 value, motility inhibition
AbaR [5] = biological target: T1, AbaR; assay: AbaR antagonism reporter gene; assay type: cell-based, Acinetobacter baumannii; settings: for AbaR antagonistic activity (in words): primary screening data
wild-type A. baumannii = assay: A. baumannii biofilm assay; assay type: cell-based; settings: Acinetobacter baumannii, read-out: inhibition of biofilm formation
[6] = AHLs over 10 nM – 100 µM against (R)-OH-dDHL at 0.70 µM

T1 sequence (A0A0N8YGA2 whole entry): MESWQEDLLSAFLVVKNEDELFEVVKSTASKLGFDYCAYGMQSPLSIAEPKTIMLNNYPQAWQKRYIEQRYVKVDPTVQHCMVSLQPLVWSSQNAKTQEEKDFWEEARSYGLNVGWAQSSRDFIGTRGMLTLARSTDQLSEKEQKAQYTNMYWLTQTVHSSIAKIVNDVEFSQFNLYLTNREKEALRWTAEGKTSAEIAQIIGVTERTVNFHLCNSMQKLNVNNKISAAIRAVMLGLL

## CCCCCCCCC[C@@H](O)CC(=O)N[C@H]1CCOC1=O [(R)-OH-dDHL, N-(3’-hydroxydodecanoyl)-L-HL, reference compound]
AbaR [1]
  Activation [%]: 100%
  EC50: 0.7 µM and 0.699 µM
AbaR [1]; from EC50 values
  fold more active than (S)-OH-dDHL (AbaR activation): ~ 40 fold
AbaR [2]
  EC50: 0.67 µM

## CCCCCCCCC[C@H](O)CC(=O)N[C@H]1CCOC1=O [(S)-OH-dDHL, N-(3’-hydroxydodecanoyl)-L-HL]
AbaR [1]
  Activation [%]: 90%
  EC50: 29 µM and 28.9 µM
AbaR [2]
  EC50: 0.82 µM

## CCCCCC(=O)CC(=O)N[C@H]1CCOC1=O [Compound 1, 3-oxo-octanoyl-HL]
AbaR [1]
  AbaR agonism (in words): limited AbaR agonism
LasR
  LasR inhibition: 50%
LasR; read-out: IC50 (LasR)
  IC50: 0.11 µM
A. baumannii (ΔabaI) [3]
  inhibition of biofilm formation (in words): inhibit biofilm formation to significant levels
A. baumannii (ΔabaI) [4]
  concentration preventing migration (comparable to ΔabaI mutant): less than 20 µM
AbaR [5]
  IC50: 2.91 µM
  inhibition at 100 µM: 73%

## CCCCCCCCCC(=O)CC(=O)N[C@H]1CCOC1=O [Compound 2]
AbaR [1]
  Activation [%]: 62%
  EC50: 7.57 µM

## CCCCCCC(=O)N[C@H]1CCOC1=O [Compound 4, heptanoyl-HL]
AbaR [5]
  IC50: 13.7 µM
  inhibition at 100 µM: 75%

## O=C(Cc1ccc(Br)cc1)N[C@H]1CCOC1=O [Compound 8, 4-bromo PHL]
AbaR [5]
  IC50: 7.83 µM
  inhibition at 100 µM: 71%

## CCCCCCCC(=O)NC1CCOC1=O (stereo not drawn) [Compound A3, octanoyl-HL]
AbaR [5]; AHLs at 100 µM against (R)-OH-dDHL at 0.70 µM, error ≤ ±10%
  Inhibition [%]: 60%

## CCCCCCCCCCCC(=O)NC1CCOC1=O (stereo not drawn) [Compound A5, dodecanoyl HL]
AbaR [1]
  AbaR agonism (in words): no agonistic activity

## CCCCCCCCCC(=O)NC1CCOC1=O (stereo not drawn) [Compound A7, decanoyl-HL]
AbaR [1]
  AbaR agonism (in words): limited AbaR agonism
  Activation [%]: 3%

## CCCCCCCCCCCCCC(=O)NC1CCOC1=O (stereo not drawn) [Compound A8, tetradecanoyl-HL]
AbaR [1]
  AbaR agonism (in words): limited AbaR agonism
  Activation [%]: 9%

## O=C(CCc1ccccc1)N[C@H]1CCOC1=O [Compound B10, phenylpropanoyl HL]
AbaR [5]
  IC50: 11 µM
  inhibition at 100 µM: 72%

## O=C(Cc1ccc(F)cc1)N[C@H]1CCOC1=O [Compound C2]
AbaR [5]; [6]
  IC50: > 25 µM

## O=C(Cc1ccc(Cl)cc1)N[C@H]1CCOC1=O [Compound C5]
AbaR [5]
  inhibition at 100 µM: 78%
AbaR [5]; [6]
  IC50: 16.7 µM

## O=C(Cc1cccc(Cl)c1)N[C@H]1CCOC1=O [Compound C6, 3-chloro PHL]
A. baumannii (ΔabaI) [4]
  IC50: ~40 µM
AbaR [5]
  IC50: 5.47 µM
  inhibition at 100 µM: 83%

## O=C(Cc1ccccc1Cl)N[C@H]1CCOC1=O [Compound C7]
AbaR [5]
  inhibition at 100 µM: 83%
AbaR [5]; [6]
  IC50: 18.5 µM

## O=C(Cc1cccc(Br)c1)N[C@H]1CCOC1=O [Compound C8, 3-bromo PHL]
A. baumannii (ΔabaI) [3]
  reduction of biofilm recovery: ~ 40%
  inhibition of biofilm formation (in words): inhibit biofilm formation to significant levels
A. baumannii (ΔabaI) [4]
  concentration preventing migration (comparable to ΔabaI mutant): less than 20 µM
  IC50: ~7 µM
wild-type A. baumannii
  inhibition at 100 µM: ~40%
AbaR [5]
  IC50: 5.06 µM
  inhibition at 100 µM: 90%
  AbaR antagonistic activity (in words): moderately to strongly inhibitory

## O=C(Cc1ccccc1Br)N[C@H]1CCOC1=O [Compound C9]
AbaR [5]
  IC50: 17.5 µM
  inhibition at 100 µM: 97%
  AbaR antagonistic activity (in words): moderately to strongly inhibitory

## O=C(Cc1ccc(I)cc1)N[C@H]1CCOC1=O [Compound C10, 4-iodo PHL]
A. baumannii (ΔabaI) [3]
  reduction of biofilm recovery: ~ 40%
  inhibition of biofilm formation (in words): inhibit biofilm formation to significant levels
A. baumannii (ΔabaI) [4]
  IC50: ~70 µM
wild-type A. baumannii
  inhibition at 100 µM: ~40%
AbaR [5]
  IC50: 7.06 µM
  inhibition at 100 µM: 91%

## O=C(Cc1cccc(I)c1)N[C@H]1CCOC1=O [Compound C11, 3-iodo PHL]
A. baumannii (ΔabaI) [4]
  concentration preventing migration (comparable to ΔabaI mutant): less than 20 µM
  IC50: ~15 µM
AbaR [5]
  IC50: 2.32 µM
  inhibition at 100 µM: 91%

## O=C(Cc1ccccc1I)N[C@H]1CCOC1=O [Compound C12, 2-iodo-PHL]
A. baumannii (ΔabaI) [4]
  IC50: ~40 µM
AbaR [5]
  IC50: 6.13 µM
  inhibition at 100 µM: 80%

## O=C(Cc1cccc([N+](=O)[O-])c1)N[C@H]1CCOC1=O [Compound C14, 3-nitro PHL]
A. baumannii (ΔabaI) [4]
  IC50: ~70 µM
AbaR [5]
  IC50: 8 µM
  inhibition at 100 µM: 70%
